This passage reports IC50 and Selective toxicity results from US7795285B2, “Anti-trypanosomiasis agent” (Fujifilm Corporation, priority 2004, dated 2010).

Where two headings read alike, the source gives them in different places.

What all share (type): cell-based
In data set [1] the test system is Trypanosoma cruzi (Tulahuen C2C4 strain). Nature of the data set: American trypanosome protozoa growth inhibition screening test (CPRG/Nonidet, 96 hours). As to conditions: for IC50: Trypanosoma cruzi, Tulahuen C2C4 strain in rat L6 cells, 96 hours culture, read-out: 50% growth inhibiting concentration Trypanosoma cruzi; for Selective toxicity: chemotherapy index, rat L6 cells versus American trypanosome protozoa. On the procedure: In the present example, amastigote and trypomastigote infected with rat L6 cells of protozoa of Trypanosoma cruzi (Tulahuen C2C4 strain) were used. As medium used in the test, RPMI 1640 medium containing L6 cells was supplemented so that L-glutamine (200 mM) becomes 1%, fetal bovine serum becomes 10%, which was cultured under CO2 concentration 5%, at 37° C.
The compounds of the present invention to be used in the test and the positive target agent (benznidazole) were dissolved in DMSO to make a test solution of a predetermined concentration. A medium containing 5×10^3 protozoa was added to wells of a 96-well culture plate, and pre-cultured for 48 hours. After replacing the medium, test solution containing drug of a predetermined concentration or a drug-free DMSO was added. Test solutions were taken by duplicates. After culturing the culture plate in an incubator for 96 hours, growth inhibition activity was tested. Test was conducted as follows.
50 μL of CPRG/Nonidet was added to each well, and allowed to rest for 2 to 6 hours. Next, the culture plate was placed on a fluorescent micro-plate reader, and the absorbance was measured at 540 nm. Growth inhibition rate was calculated with the following formula based on the protozoan infection rate which was obtained by calculating trypanosome infection rate of test solution added group and control group, to obtain a 50% growth inhibition concentration (IC50). Growth inhibition rate (%)={1−(b−a)/(c−a)}×100 a: early infection rate b: infection rate when test solution was added c: infection rate of the control
Chemotherapy index used as an index of selective toxicity against American trypanosome protozoa was calculated with the following formula, to determine drug efficacy.

Data set [2] relates to Trypanosoma brucei rhodensiense (STIB 900 strain). Nature of the data set: African trypanosome protozoa growth inhibition screening test (Alamar Blue, 72 hours). The note with it: for IC50: Trypanosoma brucei, read-out: 50% growth inhibiting concentration Trypanosoma brucei rhod.; for Selective toxicity: chemotherapy index, rat L6 cells versus African trypanosome protozoa. On the procedure:
In the present example, protozoa of Trypanosoma brucei rhodensiense (STIB 900 strain), a trypamastigote living in blood stream, was used. The medium used in the experiment was a MEM medium which was sterilized with a filter and supplemented with 25 mM N-2-hydroxyethylpiperazine-2-ethansulfonic acid (HEPES), 1 g/L glucose, 1% MEM non-essential amino acid, 0.2 mM 2-mercaptoethanol, 2 mM sodium pyruvate, 0.1 mM hypoxanthine, and 15% heat-treated horse serum. The protozoa was cultured in an atmosphere of CO2 concentration 5%, at a temperature of 37° C.
The compounds of the present invention to be used in the present test and the positive target drug (melarsoprol) were dissolved in DMSO to make a test solution of a predetermined concentration. A medium containing 8×10^3 protozoa, and a test solution containing a drug of a predetermined concentration or a drug-free DMSO were added to wells of a 96-well culture plate, and subsequently, medium was added so that the amount in each well becomes 100 μL. Test solutions were taken by duplicates. After culturing the culture plate for 72 hours in an incubator, growth inhibition activity was tested. Test was conducted as follows.
10 μL of Alamar Blue aqueous solution was added to each well, and the resultant was further cultured for 2 hours. Next, the culture plate was placed on a fluorescent micro-plate reader (Spectramax Gemeni XS; US Molecular Device), radiated at an excited wavelength of 536 nm. Fluorescent intensity was measured at 588 nm, to calculate the trypanosome protozoa infected rate of the test solution added-group, and of the control group. From the protozoan infection rate obtained in the above, growth inhibition rate was calculated with the following formula, to obtain a 50% growth inhibition concentration (IC50). Growth inhibition rate (%)={1−(b−a)/(c−a)}×100 a: early infection rate b: infection rate when test solution was added c: infection rate of the control
Chemotherapy index used as an index of selective toxicity against African trypanosome protozoa was calculated with the following formula, to determine drug efficacy.

Data set [3] in a line: Growth inhibition test of rat L6 cells (Alamar Blue, 72 hours). As to conditions: 72 hours culture, Table 1, read-out: 50% growth inhibiting concentration Cytotoxicity L6. On the procedure: (§1) Rat derived-L6 cells (rat skeletal myoblast cell) were used. As medium, RPMI1640 medium was supplemented so that L-glutamin (200 mM) is 1%, and fetal bovine serum 10%, and the medium was cultured under CO2 concentration 5%, at 37° C. The compounds of the present invention and the target drugs to be used in the test were dissolved in DMSO, to make a test solution of a predetermined concentration. Pre-culture was conducted and medium containing cells which have entered the logarithmic growth phase was taken to wells of a 96-well culture plate. Then, a test solution containing drug of a predetermined concentration or a drug-free DMSO was added. Test solutions were taken by duplicates. Culture plate was cultured for 72 hours in an incubator, to test the growth inhibition activity. Test was conducted as follows.
(§2) 10 μL of Alamar Blue aqueous solution was added to each well, and the resultant was further cultured for 2 hours. Next, the culture plate was placed on a fluorescent micro-plate reader (Spectramax Gemeni XS; US Molecular Device), radiated at an excited wavelength of 536 nm. Fluorescent intensity was measured at 588 nm, and residual rate of L6 cells of the test solution added group, and that of the control was calculated. From the cell residual rate obtained in the above, growth inhibition rate to L6 cells was calculated, to obtain a 50% growth inhibition concentration (IC50). Growth inhibition rate (%)={(C−A)/(B−A)}×100 A: primary cell count B: cell count of control 3 days after C: cell count of wells added with a sample, 3 days after […]

Data set [4] concerns Rat derived-L6 cells (rat skeletal myoblast cell). Described as above. As to conditions: 72 hours culture, Table 2, read-out: 50% growth inhibiting concentration Cytotoxicity L6. On the procedure:
as §1, §2

The mark [5] stands for this setting: STIB900, STIB 900 strain, bloodstream form, 72 hours culture.
[6] abbreviates: L6 cells (rat skeletal myoblasts).

Consider `CCn1c(=O)c(=C2C=CN(C)C=C2)s/c1=C\c1sc2c3ccccc3ccc2[n+]1CC` [A-1], for which the results for the IC50 in data set [1] and in data set [2] (setting [5]) were 48 µM and 0.76 µM, respectively. Besides, the Selective toxicity in data set [1] amounted to 2.8; in data set [2], 176. Besides, in data set [3] (setting [6]), the IC50 at 72 h is 134 µM.
The matching figures for `CCn1c(=O)/c(=C2\C=CN(C)c3ccccc32)s/c1=C\c1oc2ccccc2[n+]1CC` [A-2]: 0.53 µM, 0.012 µM, 10, 533 and 6.4 µM.
The matching figures for `CCn1c(=O)/c(=C2\SCCN2C)s/c1=C\c1sc2ccc3ccccc3c2[n+]1CC` [B-1]: 40 µM, 0.095 µM, 4.8, 2030 and 193 µM.
The matching figures for `CCn1c(=O)/c(=C2\Sc3ccccc3N2C)s/c1=C\c1cccc[n+]1CCOCCOCCOC` [B-5]: 29 µM, 0.37 µM, 4.3, 338 and 125 µM.
For the molecule `CCn1c(=O)/c(=C2\Sc3ccccc3N2C)s/c1=C\c1cccc[n+]1CCOCCOCCO` [B-6], in data set [2] (setting [5]), the IC50 came to 0.94 µM. In data set [2], the Selective toxicity is listed as 66. Moreover, the IC50 at 72 h in data set [3] (setting [6]) was 61.9 µM.
As for `CCn1c(=O)/c(=C2\Oc3ccc4ccccc4c3N2C)s/c1=C\c1scc(C)[n+]1C` [B-9], the IC50 in data set [1] was found to be 0.22 µM; in data set [2] (setting [5]), 0.024 µM. Moreover, the Selective toxicity stood at 65 in data set [1] and 592 in data set [2]. In addition, the IC50 at 72 h in data set [3] (setting [6]) stood at 14.2 µM.
Taken in the same sequence, the figures for `CCn1c(=O)/c(=C2\Oc3c(ccc4ccccc34)N2C)s/c1=C\C1=[N+](CC)CCS1` [B-10] were 0.35 µM, 0.035 µM, 53, 529 and 18.5 µM.
Take `CCn1c(=O)/c(=c2\s/c(=C3/Sc4ccccc4N3C)c(=O)n2CC)s/c1=C\c1sc2ccccc2[n+]1C` [C-1]: the IC50 in data set [1] is 14 µM; in data set [2] (setting [5]), 0.009 µM; in data set [4] it was > 140 µM. Moreover, the results for the Selective toxicity in data set [1] and in data set [2] were >10 and >15600, respectively. The IC50 at 72 h in data set [3] (setting [6]) was > 140 µM.
For `O=C(Cn1ccnc1[N+](=O)[O-])NCc1ccccc1` [benznidazole, reference compound], the IC50 in data set [1] is 0.87 µM.
For `Nc1nc(N)nc(Nc2ccc([As]3SCC(CO)S3)cc2)n1` (stereo not shown) [melarsoprol, reference compound], in data set [2] (STIB900, 72 h), the IC50 turned out to be 0.006 µM. This molecule yielded a Selective toxicity in data set [2] of 1300. Moreover, the IC50 at 72 h in data set [3] is 7.8 µM.
